Data taken from patent US20090221019A1, “Core-Modified Terpene Trilactones From Ginkgo Biloba Extract and Biological Evaluation Thereof” (priority 2005, published 2009).

Experiments:
[1] = tested on: Aβ1-42 induced inhibition of long-term potentiation in the CA1 region of hippocampal slices; experiment: Aβ-induced LTP impairment in CA1 region of hippocampal slices (fEPSP recordings, theta-burst stimulation); format: cell-based, rat; mice; conditions: for efficiency of rescue of LTP impairment compared with GJ: 1 μM, 20 min treatment, slices treated with Aβ; for reversal of Aβ-induced LTP impairment: individual terpene trilactones at 1 μM each, co-treated with 200 nM Aβ1-42 oligomers, 20 min
glycine receptor = conditions: among several receptor-gated channels; cited from earlier work
[2] = tested on: cultured hippocampal neurons treated with oligomeric Aβ1-42; experiment: Neuronal cell death assay (nuclear counting of viable cells); conditions: for cells surviving: mean±SEM
[3] = tested on: SY5Y human neuroblastoma cell line; conditions: Bate et al. (25); cited from earlier work
[4] = tested on: inhibition of LTP by Aβ1-42 oligomers; conditions: earlier studies (19); cited from earlier work
GABAA receptor = conditions: compared with all the ginkgolides; cited from earlier work
[5] = tested on: GABAA receptor convulsant binding site; conditions: cited from earlier work
[6] = 1 μM compound added at the same time as 10 μM oligomeric Aβ1-42, 24 hour, Aβ alone 48.5%±2.4

C[C@@H]1COC2CC34C5C[C@@H](C(C)(C)C)C36C(OC[C@@H]6O)O[C@@]4(CO5)[C@]21O (stereo partly drawn) [GA-triether]
efficiency of rescue of LTP impairment compared with GJ [1]: slightly less than that of GJ | reversal of Aβ-induced LTP impairment [1]: capable of reproducing the activity of the enriched extract and reversing Aβ-induced LTP impairment

ginkgolide J [GJ]
potentiation at the end of the recording (residual potentiation, FIG. 12) ([1]; 155 min): most potent ginkgolide, completely mimicking the activity of the enriched extract | reversal of Aβ-induced LTP impairment [1]: capable of reproducing the activity of the enriched extract and reversing Aβ-induced LTP impairment | antagonistic properties toward glycine receptor (glycine receptor): showed antagonistic properties exclusively toward glycine receptor | cells surviving [2, 6]: 70.7%±1.4 | prevention of Aβ-toxicity ([2]; 5 μM, data not shown): completely prevented the Aβ-toxicity

CC(C)(C)[C@]1(O)CC2OC(=O)CC23C(=O)OC2OC(=O)[C@H](O)C231 (stereo partly drawn) [BB, bilobalide]
reversal of Aβ-induced LTP impairment [1]: No effect

CC1C(=O)OC2C(O)C34C5CC(C(C)(C)C)C36C(OC(=O)C6O)OC4(C(=O)O5)C12O (stereo not drawn) [GB, ginkgolide B]
reversal of Aβ-induced LTP impairment [1]: No effect | antagonistic properties toward glycine receptor (glycine receptor): showed antagonistic properties exclusively toward glycine receptor | blockade of cell death [3]: blockade of cell death

oligomeric Aβ1-42: Aβ1-42 purchased from American Peptide, prepared in oligomeric form; neurotoxic agent [reference compound]
LTP in the CA1 area relative to control ([1]; 200 nM Aβ1-42 oligomers alone, within 20 min of exposure): depressed LTP in the CA1 area to about a half of control values | effect on baseline transmission ([1]; substance alone): Neither Aβ nor P8A alone affected baseline transmission | cells surviving ([2]; 10 μM oligomeric Aβ1-42 alone, 24 hour exposure): 48.5%±2.4

C[C@@H]1C(=O)O[C@H]2C[C@@]34[C@H]5C[C@@H](C(C)(C)C)[C@]36[C@@H](OC(=O)[C@@H]6O)O[C@@]4(C(=O)O5)[C@]21O [GA, ginkgolide A]
efficiency of rescue of LTP impairment compared with GJ [1]: slightly less than that of GJ | reversal of Aβ-induced LTP impairment [1]: capable of reproducing the activity of the enriched extract and reversing Aβ-induced LTP impairment | antagonistic properties toward glycine receptor (glycine receptor): showed antagonistic properties exclusively toward glycine receptor | blockade of cell death [3]: blockade of cell death | cells surviving [2, 6]: 50.5%±+5.7

COc1ccc(C2CNC(=O)C2)cc1OC1CCCC1 (stereo not drawn) [rolipram]
reversal of inhibition of LTP by Aβ1-42 oligomers [4]: can be reversed by treatment with the phosphodiesterase 4 (PDE4) inhibitor rolipram

C[C@@H]1C(=O)O[C@@H]2[C@H]1[C@@]13OC4OC(=O)[C@H](O)C45[C@H](C(C)(C)C)[C@@H](O)C(OC1=O)[C@]53[C@H]2O (stereo partly drawn) [GM, Ginkgolide M]
inhibition of the GABAA receptor (GABAA receptor): highest inhibition | displacement of TBPS (35S-tert-butylbicyclophosphorothionate) [5]: efficiently displaced

ginkgolide C [GC]
reversal of Aβ-induced LTP impairment [1]: No effect | antagonistic properties toward glycine receptor (glycine receptor): showed antagonistic properties exclusively toward glycine receptor
